Reference: patent US5395947A, “Platinum(II) complex and processes for preparing the same” (Sunkyong Industries, Ltd., priority 1991, dated 1995)

Key:
[1] = tested on: murine leukemia L1210 cells; test: Growth inhibition test on cultured murine leukemia L1210 cells; type: cell-based; conditions: 48 hours, 37° C., Trypan blue viability
How it was run: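 L1210 cells (1×10^5) exposed to graded compound concentrations in RPMI 1640 with 10% fetal calf serum, 37° C, 5% CO2, 48 h. Viability by 0.17% Trypan blue staining, relative to untreated control cells.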

murine leukemia L1210 = test: Antitumor activity test on murine leukemia L1210 in vivo; parameters: species or system male BDF1 mice; conditions: days 1, 5, 9
How it was run: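 Intraperitoneal L1210 model: 1×10^6 cells inoculated i.p. into 6-week-old male BDF1 mice (21±3 g) on day 0, seven per group. Compounds in 0.5% CMC given i.p. on days 1, 5 and 9; vehicle-only controls. T/C % from mean survival time of treated over control.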

[2] = Test for water solubility; type: physicochemical; conditions: water
Text: 3. Test for water solubility
A standard plot of UV absorbance(220 nm) vs. concentration was made; and employed to determine water-solubility.
The mixture was then passed through a 0.45 micron disposable membrane filter before dilution and UV measurement.

ICR mice = test: Acute toxicity test; type: in vivo; parameters: Lethality: unit not given here; conditions: for Lethality: 10080 min
Experimental: 7-week-old ICR mice(male: 34±2 g; female: 31±2 g) were fed with solid food and water under the condition of 23±1° C. temperature and 65±5% humidity before the test.
Each treatment group consisted of 6 mice. The test compounds were administered intraperitoneally.
For 7 days after the administration, the appearance and the fate of the tested animals were recorded. The dead animals were subjected to autopsy and their visible pathological changes were observed. Their viscerals were stored in 10% formalin solution.

CCC1(CC)OC2C[NH2+][Pt-2]3([NH2+]CC2O1)[O]CC(=O)[O]3 [Example 8, (glycolato-O,O')[(4R,5R)-4,5-bis(aminomethyl)-2,2-diethyl-1,3-dioxolane]platinum(II)]
IC50 (concentration required for 50% inhibition of growth) [1]: 0.06 µg/mL | T/C (%) (murine leukemia L1210; 3.1 mg/kg i.p.): 154% | T/C (%) (murine leukemia L1210; 6.2 mg/kg i.p.): 198% | T/C (%) (murine leukemia L1210; 12.5 mg/kg i.p.): 245% | T/C (%) (murine leukemia L1210; 25 mg/kg i.p.): toxic | T/C (%) (murine leukemia L1210; 50 mg/kg i.p.): toxic | Solubility in water [2]: > 30 mg/mL | Number of dead mice for 7 days (ICR mice; female, 41.3 mg/kg i.p.): 0/6 | Number of dead mice, 1st day (ICR mice; female, 41.3 mg/kg i.p.): 0/6 | Lethality (ICR mice; female, 41.3 mg/kg i.p.): 0.0 | Number of dead mice for 7 days (ICR mice; female, 54.9 mg/kg i.p.): 3/6 | Number of dead mice, 1st day (ICR mice; female, 54.9 mg/kg i.p.): 0/6 | Number of dead mice, 3rd day (ICR mice; female, 54.9 mg/kg i.p.): 1/6 | Number of dead mice, 4th day (ICR mice; female, 54.9 mg/kg i.p.): 2/5 | Lethality (ICR mice; female, 54.9 mg/kg i.p.): 50.0 | Number of dead mice for 7 days (ICR mice; female, 71.4 mg/kg i.p.): 5/6 | Number of dead mice, 1st day (ICR mice; female, 71.4 mg/kg i.p.): 0/6 | Number of dead mice, 4th day (ICR mice; female, 71.4 mg/kg i.p.): 2/6 | Number of dead mice, 5th day (ICR mice; female, 71.4 mg/kg i.p.): 3/4 | Lethality (ICR mice; female, 71.4 mg/kg i.p.): 83.7 | Number of dead mice for 7 days (ICR mice; female, 91.8 mg/kg i.p.): 6/6 | Number of dead mice, 1st day (ICR mice; female, 91.8 mg/kg i.p.): 0/6 | Number of dead mice, 2nd day (ICR mice; female, 91.8 mg/kg i.p.): 1/6 | Number of dead mice, 3rd day (ICR mice; female, 91.8 mg/kg i.p.): 3/5 | Number of dead mice, 4th day (ICR mice; female, 91.8 mg/kg i.p.): 2/2 | Lethality (ICR mice; female, 91.8 mg/kg i.p.): 100.0 | Number of dead mice for 7 days (ICR mice; male, 41.3 mg/kg i.p.): 0/6 | Number of dead mice, 1st day (ICR mice; male, 41.3 mg/kg i.p.): 0/6 | Lethality (ICR mice; male, 41.3 mg/kg i.p.): 0.0 | Number of dead mice for 7 days (ICR mice; male, 54.9 mg/kg i.p.): 4/6 | Number of dead mice, 1st day (ICR mice; male, 54.9 mg/kg i.p.): 0/6 | Number of dead mice, 3rd day (ICR mice; male, 54.9 mg/kg i.p.): 2/6 | Number of dead mice, 4th day (ICR mice; male, 54.9 mg/kg i.p.): 2/4 | Lethality (ICR mice; male, 54.9 mg/kg i.p.): 66.7 | Number of dead mice for 7 days (ICR mice; male, 71.4 mg/kg i.p.): 5/6 | Number of dead mice, 1st day (ICR mice; male, 71.4 mg/kg i.p.): 0/6 | Number of dead mice, 3rd day (ICR mice; male, 71.4 mg/kg i.p.): 1/6 | Number of dead mice, 4th day (ICR mice; male, 71.4 mg/kg i.p.): 4/5 | Lethality (ICR mice; male, 71.4 mg/kg i.p.): 83.3 | Number of dead mice for 7 days (ICR mice; male, 91.8 mg/kg i.p.): 6/6 | Number of dead mice, 1st day (ICR mice; male, 91.8 mg/kg i.p.): 0/6 | Number of dead mice, 2nd day (ICR mice; male, 91.8 mg/kg i.p.): 2/6 | Number of dead mice, 3rd day (ICR mice; male, 91.8 mg/kg i.p.): 4/4 | Lethality (ICR mice; male, 91.8 mg/kg i.p.): 100.0
